From article doi:10.1101/2024.08.19.608619, “Discovery of potent SARS-CoV-2 nsp3 macrodomain inhibitors uncovers lack of translation to cellular antiviral response” (bioRxiv, 2024)
≈ marks a conversion by molar mass, not a printed value. Like-named read-outs stand apart in the source and are kept apart here.

Tests used:
LogD = conditions: pH 7.4; In vitro LogD
[1] = Hepatic microsomal stability, HLM; format: in vitro ADME, human; conditions: In vitro human liver microsomal stability; for perc_remaining_no_cofactor: no cofactor
[2] = Permeability Papp (AB) MDR1/MDCKII; conditions: In vitro MDR1-MDCKII permeability; for papp_a_to_b_mean: A to B; for perc_recovery_a_to_b_mean: recovery A to B
[3] = test system: SARS-CoV-2, isolate USA-WA1/2020; assay: microbe, parasite or virus in culture; format: cell-based; conditions: HeLa-ACE2 SARS-CoV-2 antiviral effect without P-gp inhibitor; for perc_max_measured: maximum measured response of dose series; for perc_min_measured: minimum measured response of dose series; for EC50: read-out: ec50; for EC90: read-out: ec90
[4] = Hepatic microsomal stability, MLM; format: in vitro ADME
[5] = In vitro kinetic solubility; conditions: In vitro kinetic solubility, ph 7.4
in vitro = conditions: human, hela-ace2 cells, 50.0
HeLa-ACE2 cells = conditions: for perc_max_measured: highest measured response of the dose series; for perc_min_measured: lowest measured response of the dose series
[6] = In vitro mouse liver microsomal stability
[7] = In vitro mouse liver microsomal stability, no cofactor
[8] = protocol HeLa-ACE2 cytotoxicity

Row | SMILES | logd (LogD) | clint [1] [µL/min/mg] | perc_remaining [1] [%] | t_half [1] [min] | perc_remaining_no_cofactor [1] [%] | perc_max_measured [3] [%] | perc_min_measured [3] [%] | EC50 [3] [µM] | EC90 [3] [µM] | clint [4, 6] [µL/min/mg] | perc_remaining [4, 6] [%] | t_half [4, 6] [min] | solubility_mean [5] [µM] | CC50 (HeLa-ACE2 cells; HeLa-ACE2 cytotoxicity) [µM] | cc10 (HeLa-ACE2 cells; HeLa-ACE2 cytotoxicity) [µM] | perc_max_measured (HeLa-ACE2 cells; HeLa-ACE2 cytotoxicity) [%] | perc_min_measured (HeLa-ACE2 cells; HeLa-ACE2 cytotoxicity) [%] | perc_remaining_no_cofactor [4, 7] [%] | papp_a_to_b_mean ([2]; no inhibitor) [×10⁻⁶ cm/s] | perc_recovery_a_to_b_mean ([2]; no inhibitor) [%] | also measured
1 | CC(C)[C@@H](Nc1ncnc2[nH]c(-c3cnn(CC(=O)N(C)C)c3)cc12)c1ccc2c(c1)S(=O)(=O)CCC2 (racemic) [ASAP-0008668] | 2.1 | 106.0 | 18.0 | 15.8 | 92.0 | 98.615 | 84.991 | > 20 | > 20 | 68.0 | 31.0 | 24.6 | 38 (≈ 19.8 µg/mL) | > 20 | > 20.0 | 99.837 | 68.704 |  |  |  | papp_a_to_b_mean ([2]; mean): 0.67 ×10⁻⁶ cm/s; perc_recovery_a_to_b_mean ([2]; mean): 85.0%; perc_remaining_no_cofactor ([4]; In vitro mouse liver microsomal stability; no cofactor): 92.0%; CC50 at 24 h (in vitro): > 20 µM
2 | Cc1nn(C)cc1-c1cc2c(N[C@H](c3ccc4c(c3)S(=O)(=O)CCC4)C(C)C)ncnc2[nH]1 (single isomer, unassigned) [ASAP-0011448] | 3.4 | 251.0 | 2.0 | 6.6 | 116.0 | 131.643 | 93.649 | > 20 | > 20 | 390.0 | 1.0 | 4.3 | 63 (≈ 29.3 µg/mL) |  |  |  |  | 103.0 |  |  | papp_a_to_b_mean ([2]; mean): 3.69 ×10⁻⁶ cm/s; perc_recovery_a_to_b_mean ([2]; mean): 77.9%; CC50 (HeLa-ACE2 cells; [8]): > 20 µM; cc10 (HeLa-ACE2 cells; [8]): > 20.0 µM; perc_max_measured (HeLa-ACE2 cells; [8]): 94.816%; perc_min_measured (HeLa-ACE2 cells; [8]): 77.647%
3 | CCNC(=O)c1cc2c(N[C@H](c3ccc4c(c3)OCCO4)C(C)C)ncnc2[nH]1 (single isomer, unassigned) [ASAP-0013827] | 3.6 | 1329.0 | 1.0 | 1.3 | 97.0 | 113.12 | 80.543 | > 20 | > 20 | 72.0 | 29.0 | 23.2 | 13 (≈ 5.14 µg/mL) |  |  | 106.128 | 83.696 | 92.0 | 2.9 | 81.7 | 
4 | CC(C)[C@H](Nc1ncnc2[nH]c(C(=O)N[C@@H]3CCN(C)C3)cc12)c1ccc2c(c1)S(=O)(=O)CCC2 [ASAP-0011196] | 1.4 | 3.0 | 98.0 | 626.9 | 100.0 |  |  |  |  | 3.0 | 104.0 | 648.8 | 366 (≈ 182 µg/mL) |  |  |  |  | 107.0 | 0.707 | 103.0 | 
5 | CNC(=O)c1cc2c(N[C@@H](c3ccc4c(c3)NC(=O)CO4)C(C)C)ncnc2[nH]1 [ASAP-0011219] | 2.9 | 175.0 | 6.0 | 9.6 | 96.0 |  |  |  |  | 33.0 | 57.0 | 51.2 | 380 (≈ 150 µg/mL) |  |  |  |  | 99.0 |  |  | papp_a_to_b_mean ([2]; mean): 1.21 ×10⁻⁶ cm/s; perc_recovery_a_to_b_mean ([2]; mean): 105.0%
6 | CC(C)[C@H](Nc1ncnc2[nH]c(-c3cnn(CC(N)=O)c3)cc12)c1ccc2c(n1)OCCO2 [ASAP-0012307] | 2.3 | 12.0 | 85.0 | 134.5 | 90.0 |  |  |  |  | 5.0 | 99.0 | 359.1 | 377 (≈ 169 µg/mL) |  |  |  |  | 110.0 | 1.27 | 100.0 | 
7 | CCNC(=O)c1cc2c(N[C@H](c3ccc4c(c3)S(=O)(=O)CCC4)C(C)C)ncnc2[nH]1 [ASAP-0012325] | 2.7 | 109.0 | 17.0 | 15.4 | 102.0 |  |  |  |  | 64.0 | 34.0 | 26.3 | 337 (≈ 149 µg/mL) |  |  |  |  | 97.0 | 0.717 | 88.3 | 
8 | CC(C)[C@H](Nc1ncnc2[nH]c(C(=O)N[C@H]3CCN(C)C3)cc12)c1ccc2c(c1)S(=O)(=O)CCC2 [ASAP-0012334] | 1.4 | 11.0 | 80.0 | 149.8 | 98.0 |  |  |  |  | 1.0 | 98.0 | 1540.5 | 396 (≈ 197 µg/mL) |  |  |  |  | 97.0 | 0.175 | 89.9 | 
9 | CC(C)[C@H](Nc1ncnc2[nH]c(-c3cnn(CC(=O)N(C)C)c3)cc12)c1ccc2c(c1)S(=O)(=O)CCC2 [ASAP-0013744] | 2.2 | 92.0 | 22.0 | 18.1 | 97.0 |  |  |  |  | 124.0 | 13.0 | 13.5 | 361 (≈ 188 µg/mL) |  |  |  |  | 98.0 | 1.17 | 116.0 | 
10 | CC(C)[C@@H](Nc1ncnc2[nH]c(-c3cnn(CC(=O)N(C)C)c3)cc12)c1ccc2c(c1)S(=O)(=O)CCC2 [ASAP-0013747] | 2.2 | 297.0 | 1.0 | 5.6 | 99.0 |  |  |  |  | 31.0 | 59.0 | 53.8 | 256 (≈ 134 µg/mL) |  |  |  |  | 102.0 | 0.555 | 78.8 | 
11 | CCNC(=O)c1cc2c(N[C@H](c3ccc4c(c3)OCCO4)C(C)C)ncnc2[nH]1 [ASAP-0013824] | 3.6 | 67.0 | 32.0 | 24.8 | 100.0 | 109.949 | 49.504 | 19.7 | > 20 | 48.0 | 47.0 | 34.6 | 263 (≈ 104 µg/mL) | > 20 | > 20.0 | 99.37 | 90.423 | 94.0 | 2.7 | 94.3 | 
12 | C[C@@H](C(=O)O)[C@H](NC(=O)c1ncnc2[nH]ccc12)c1ccc(Br)cc1 [ASAP-0014726] |  |  |  |  |  | 129.968 | 44.709 |  |  |  |  |  |  | > 20 | > 20.0 | 106.212 | 72.067 |  |  |  | CC50 at 24 h (in vitro): > 20 µM
13 | COc1ccc([C@@H](Cc2nnn[nH]2)NC(=O)c2ncnc3[nH]ccc23)cc1 [ASAP-0015384] |  |  |  |  |  | 136.92 | 93.837 | > 20 | > 20 |  |  |  |  | > 20 | > 20.0 | 99.805 | 83.484 |  |  |  | CC50 at 24 h (in vitro): > 20 µM
